Data set [1] is described as follows: Plasma clearance in Sprague-Dawley rat at 1.0 mg/kg, iv or 3.0 mg/kg, po. The data set is classed as ADME, organism-based.
Data set [2] in a line: Bioavailability in Sprague-Dawley rat at 3.0 mg/kg, po. The data set is classed as ADME, organism-based. The following applies: in vivo.

`C[C@@H](c1ccccc1)n1c(CNC(=O)[C@@H](Cc2ccccc2C(F)(F)F)NC(=O)OC(C)(C)C)nc2cccnc21` gave a clearance in data set [1] of 21 mL/min/kg. The molecule further registered a bioavailability in data set [2] of 36%.

In data set [1], `CC(C)(C)OC(=O)N[C@H](Cc1ccccc1C(F)(F)F)C(=O)NCc1nc2cccnc2n1C(C)(C)C` gave a clearance of 36 mL/min/kg. This molecule gave a bioavailability in data set [2] of 31%.

`CC(C)(C)OC(=O)N[C@H](Cc1ccccc1C(F)(F)F)C(=O)NCc1nc2cccnc2n1CC(F)(F)F` had a clearance in data set [1] of 113 mL/min/kg. In addition, the bioavailability in data set [2] turned out to be 7%.

In turn, `CC(C)(C)OC(=O)N[C@H](Cc1ccccc1F)C(=O)NCc1nc2cccnc2n1C1(c2ccccc2)CC1` yielded a clearance in data set [1] of 7.5 mL/min/kg. The molecule further registered a bioavailability in data set [2] of 47%.

Turning to `CC(C)(C)OC(=O)N[C@H](Cc1ccccc1C(F)(F)F)C(=O)NCc1nc2cccnc2n1CC(F)(F)C(F)(F)F`, the clearance in data set [1] is 87 mL/min/kg. Moreover, the bioavailability in data set [2] stood at 10%.

As to `O=C(NCc1nc2cccnc2n1C1(c2ccccc2)CC1)[C@@H](Cc1ccccc1Cl)NC(=O)C1(C(F)(F)F)CC1`, the clearance in data set [1] was found to be 9.3 mL/min/kg. Besides, in data set [2], the bioavailability came to 78%.

Regarding `CC(C)(C)OC(=O)N[C@H](Cc1ccccc1C(F)(F)F)C(=O)NCc1nc2cccnc2n1Cc1ccccc1`, the clearance in data set [1] is 15 mL/min/kg. Besides, in data set [2], the bioavailability stood at 41%.

Consider `CC(C)(C)OC(=O)N[C@H](Cc1ccccc1C(F)(F)F)C(=O)NCc1nc2cccnc2n1C1(c2ccccc2)CC1`, for which, in data set [1], the clearance was 3 mL/min/kg. The molecule also gave a bioavailability in data set [2] of 44%.

Turning to `CC(C)(C)OC(=O)N[C@H](Cc1ccccc1C(F)(F)F)C(=O)NCc1nc2cccnc2n1CC1CC1`, the clearance in data set [1] was found to be 114 mL/min/kg. The molecule further returned a bioavailability in data set [2] of 25%.

Turning to `CC(C)(C)Cn1c(CNC(=O)[C@@H](Cc2ccccc2C(F)(F)F)NC(=O)OC(C)(C)C)nc2cccnc21`, the clearance in data set [1] is 64 mL/min/kg. For the same molecule, the bioavailability in data set [2] came out at 17%.

`C[C@H](c1ccccc1)n1c(CNC(=O)[C@@H](Cc2ccccc2C(F)(F)F)NC(=O)OC(C)(C)C)nc2cccnc21` came in with a clearance in data set [1] of 22 mL/min/kg. In addition, in data set [2], the bioavailability was found to be 57%.

In data set [1], `O=C(NCc1nc2cccnc2n1C1(c2ccccc2)CC1)[C@@H](Cc1c(F)ccc(F)c1F)NC(=O)C1(C(F)(F)F)CC1` came in with a clearance of 6.6 mL/min/kg. In data set [2], this molecule yielded a bioavailability of 85%.

Molecule `O=C(NCc1nc2cccnc2n1C1(c2ccccc2)CC1)[C@@H](Cc1c(F)cccc1F)NC(=O)C1(C(F)(F)F)CC1` registered a clearance in data set [1] of 4.2 mL/min/kg. In data set [2], the bioavailability was 54%.

(Values after ChEMBL document CHEMBL1141499, “Imidazopyridines: a novel class of hNav1.7 channel blockers” (Bioorg Med Chem Lett, 2008).)
